Assay results reported in patent US7329678B2, “Chemical compounds” (SmithKline Beecham Corporation, priority 2003, dated 2008).
Where a name gives a salt, the structure may show the parent alone.

Molecular target: T1, Serum Glucocorticoid-regulated Kinase-1 (SGK-1) (Homo sapiens, UniProt O00141, S422D)
T1 construct: a truncated form of the human enzyme that included amino acids 61-431; 6xHis (N); made in house
T1 sequence (O00141 61-431 S422D): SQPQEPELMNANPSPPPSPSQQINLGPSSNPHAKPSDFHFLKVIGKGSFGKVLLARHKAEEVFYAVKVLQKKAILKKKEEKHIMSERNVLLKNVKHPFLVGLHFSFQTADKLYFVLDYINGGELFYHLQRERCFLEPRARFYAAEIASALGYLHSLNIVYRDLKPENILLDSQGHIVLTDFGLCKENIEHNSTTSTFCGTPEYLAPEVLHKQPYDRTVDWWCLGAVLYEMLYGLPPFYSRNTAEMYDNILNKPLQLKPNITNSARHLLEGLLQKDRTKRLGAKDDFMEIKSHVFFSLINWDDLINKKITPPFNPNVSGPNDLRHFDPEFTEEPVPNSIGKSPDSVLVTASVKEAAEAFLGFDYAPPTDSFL
Assay: SGK-1 Enzyme Assay (SGK1e), substrate phosphorylation, scintillation proximity
Format: biochemical
Conditions: truncated human SGK-1 (aa 61-431, S422D), 10 μM ATP, Crosstide substrate
Experimental: SGK-1 Enzyme Assay (SGK1e):
Compounds of the present invention were tested for Serum Glucocorticoid-regulated Kinase-1 (SGK-1) protein serine/threonine kinase inhibitory activity in substrate phosphorylation assays using enzyme purified from a baculovirus expression vector system. The recombinant baculovirus was made to express the intracellular domain of SGK-1 (GenBank accession number AAD41091). The virus expressed a truncated form of the human enzyme that included amino acids 61-431. Serine 422 was replaced with Aspartic acid to activate the enzyme, and 6 Histidine residues were added at the amino terminus to facilitate purification. The protein was purified using Ni-NTA agarose affinity chromatography. The peptide substrate was an N-terminal biotinylated synthetic peptide named Crosstide (biotin-Ahx-GRPRTSSFAEG-OH), corresponding to the sequence in GSK3 surrounding the serine phosphorylated by MAPKAP Kinase-1/Rsk and p70 S6 Kinase.
The method measures the ability of the isolated enzyme to catalyze the transfer of the γ-phosphate from ATP onto serine/threonine residues in the biotinylated Crosstide. Reactions were performed in 96-well polystyrene round-bottom plates in a final volume of 30 μL. Reaction mixtures contained 62.5 mM HEPES (pH 7.4), 10 mM MgCl2, 0.1 mM EDTA, 0.0024% TWEEN-20, and 1 mM DTT (added fresh daily), 10 μM ATP, 0.2 μCi [[ν-^33P] ATP per reaction, 4 μM Crosstide peptide substrate, and 1 nM SGK1 enzyme. Reactions were initiated by adding the indicated enzyme. The reaction was allowed to proceed for 2 hours, then terminated by the addition of 50 mM EDTA and quantified using a scintillation proximity assay procedure as described (McDonald, O. B., Antonsson, B., Arkinstal, S., Marshall, C. J., and Wood, E. R. (1999) Analytical Biochemistry, 268, 318-329).
Compounds under analysis were dissolved in Me2SO to 1 mM and serially diluted 1 to 3 with Me2SO through eleven columns of a 96 well plate. 1 μL of each concentration was transferred to the corresponding well of the assay plate. This created a final compound concentration range from 0.56 nM to 33.3 μM.
The data for dose responses were plotted as % Control calculated with the data reduction formula 100*(U1−C2)/(C1−C2) versus concentration of compound and fitted to the curve described by: y=((Vmax*x)/(K+x)) where Vmax is the upper asymptote and K is the IC50.

IC50, < 1000 nM:
COc1cccc(-c2cnc(N)c(-c3nc4cc(Cl)c(F)cc4[nH]3)c2)c1 [Example 11, 3-(5-chloro-6-fluoro-1H-benzimidazol-2-yl)-5-(3-methoxyphenyl)pyridin-2-amine hydrochloride]
Cc1cccc2[nH]c(-c3cc(-c4ccc(F)cc4)cnc3N)nc12 [Example 17, 5-(4-fluorophenyl)-3-(4-methyl-1H-benzimidazol-2-yl)pyridin-2-amine]
Nc1ncc(-c2ccc(F)cc2)cc1-c1nc2ccc(S(N)(=O)=O)cc2[nH]1 [Example 14, 2-[2-amino-5-(4-fluorophenyl)pyridin-3-yl]-1H-benzimidazole-6-sulfonamide]
COC(=O)c1ccc2nc(-c3cc(-c4cccc(OC)c4)cnc3N)[nH]c2c1 [Example 7, Methyl 2-[2-amino-5-(3-methoxyphenyl)pyridin-3-yl]-1H-benzimidazole-6-carboxylate hydrochloride]
Nc1ncc(-c2ccccc2)cc1-c1nc2ccc(S(N)(=O)=O)cc2[nH]1 [Example 4, 2-(2-amino-5-phenylpyridin-3-yl)-1H-benzimidazole-6-sulfonamide hydrochloride]
Nc1ncc(-c2ccccc2)cc1-c1nc2ccccc2[nH]1 [Example 1, 3-(1H-benzimidazol-2-yl)-5-phenylpyridin-2-amine hydrochloride]
